Data published in US11919918B2, “P2X3 andor P2X2/3 receptor antagonist, pharmaceutical composition comprising same, and use thereof” (BEIJING TIDE PHARMACEUTICAL CO., LTD., priority 2017, dated 2024).

Key:
human P2X3 receptor = human P2X3 receptor (Homo sapiens (Human), UniProt P56373); test: Inhibitory activity on human P2X3 receptor (calcium 6 dye FLIPR assay, agonist α,β-MeATP); format: cell-based; conditions: HEK293-P2X3 stably expressing cell line, FLIPR Tetra
Description: (§1) Biological Assay: Determination of the Inhibitory Activity of the Compounds on Human P2X3 and P2X2/3 Receptors
(§2) Cells were seeded into a poly-D-lysine-coated 384-well cell culture plate (Corning) at a density of 11,000 cells/well/25 μL of cell inoculation medium, and were cultured in a cell incubator overnight. On the day of the test, the calcium 6 dye was diluted to a 2× concentration with a assay buffer, 25 μL of the 2× calcium 6 dye was added to the 384-well cell culture plate, which was incubated at 37° C. for 2 hours, and then placed at room temperature for further use. The test compound and the agonist, α,β-MeATP were diluted to a 7× concentration with the assay buffer, 10 μL of the 7× test compound was added to the 384-well cell culture plate, which was incubated at room temperature for 15 minutes, and 10 μL of the 7× α,β-MeATP was transferred into the 384-well cell culture plate. The data were measured and analyzed using FLIPR Tetra, and the half inhibitory concentration (IC50) of the test compound on P2X3 and P2X2/3 receptors was calculated with the GraphPad Prism four-parameter equation.
(§3) Cell lines: human embryonic kidney cells HEK293-P2X3 and HEK293-P2X2/3 stably expressing cell lines;
(§4) Complete cell culture medium: DMEM High Glucose (Life Technology), which contained 10% fetal bovine serum, 4 mM GlutaMAX, 1% penicillin-streptomycin, and 350 μg/mL G418;
(§5) Cell inoculation medium: DMEM High Glucose (Life Technology), which contained 2% fetal bovine serum, and 4 mM GlutaMAX;
(§6) Cell culture conditions: 37° C., 5% CO2;
(§7) Assay buffer: HBSS (containing calcium and magnesium ions), which contained 20 mM HEPES;
(§8) Detection equipment: FLIPR Tetra (Molecular Devices);

human P2X2/3 receptor = human P2X2/3 receptor (Homo sapiens (Human), UniProt P56373+Q9UBL9); test: Inhibitory activity on human P2X2/3 receptor (calcium 6 dye FLIPR assay, agonist α,β-MeATP); format: cell-based; conditions: HEK293-P2X2/3 stably expressing cell line, FLIPR Tetra
Description: as §1, §2, §3, §4, §5, §6, §7, §8

Chain of human P2X3 receptor (P56373 whole entry): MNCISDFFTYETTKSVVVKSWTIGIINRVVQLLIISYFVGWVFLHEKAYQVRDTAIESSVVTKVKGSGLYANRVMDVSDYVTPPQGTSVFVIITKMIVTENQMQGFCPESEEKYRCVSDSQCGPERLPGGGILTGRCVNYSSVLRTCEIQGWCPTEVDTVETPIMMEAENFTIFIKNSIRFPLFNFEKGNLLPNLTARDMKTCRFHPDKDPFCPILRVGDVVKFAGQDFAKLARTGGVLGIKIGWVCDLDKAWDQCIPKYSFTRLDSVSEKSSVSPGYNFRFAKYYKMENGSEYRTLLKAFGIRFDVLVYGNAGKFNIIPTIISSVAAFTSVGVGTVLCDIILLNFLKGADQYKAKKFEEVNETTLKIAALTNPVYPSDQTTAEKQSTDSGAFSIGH
Chain of human P2X2/3 receptor (Q9UBL9 whole entry): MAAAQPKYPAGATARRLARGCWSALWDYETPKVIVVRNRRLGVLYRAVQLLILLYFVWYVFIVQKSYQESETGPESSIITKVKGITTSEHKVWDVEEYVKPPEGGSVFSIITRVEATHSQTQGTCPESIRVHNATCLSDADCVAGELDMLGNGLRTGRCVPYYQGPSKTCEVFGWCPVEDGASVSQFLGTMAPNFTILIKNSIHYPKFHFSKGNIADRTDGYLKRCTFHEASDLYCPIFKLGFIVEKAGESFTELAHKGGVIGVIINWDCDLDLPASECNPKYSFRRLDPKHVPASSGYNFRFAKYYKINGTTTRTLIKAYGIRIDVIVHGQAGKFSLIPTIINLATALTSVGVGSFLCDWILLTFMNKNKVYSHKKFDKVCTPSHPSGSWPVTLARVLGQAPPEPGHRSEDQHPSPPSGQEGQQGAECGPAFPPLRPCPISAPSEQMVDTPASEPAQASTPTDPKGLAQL
Chain of human P2X2/3 receptor (P56373 whole entry): as the sequence (P56373 whole entry) above

IC50 (human P2X3 receptor) [nM] | IC50 (human P2X2/3 receptor) [nM] | SMILES
303 | 488 | CC(C)c1cnc(C#Cc2ccccc2)cc1Oc1cnc(N)nc1N [Compound C135, 5-((5-isopropyl-2-(phenyl-ethynyl)pyridin-4-yl)oxy) pyrimidine-2,4-diamine]
186 | 383 | CC(C)c1cnc(Cl)cc1Oc1cnc(NC(CO)CO)nc1N [Compound C218, 2-((4-amino-5-((2-chloro-5-isopropyl-pyridin-4-yl)oxy)pyrimidin-2-yl)amino) propane-1,3-diol]
72 | 46 | CCN(C)CCNc1nc(N)ncc1Oc1cc(Br)ncc1C(C)C [Compound C154, 5-((2-bromo-5-isopropylpyridin-4-yl)oxy)-N^4-(2-(ethyl(methyl)amino)ethyl)pyrimidine-2,4-diamine]
44 | 72 | C=C(C)c1cnc(NCC)cc1Oc1cnc(N)nc1N [Compound C214, 5-((2-(ethylamino)-5-(prop-1-en-2-yl)pyridin-4-yl)oxy)pyrimidine-2,4-diamine]
205 | 341 | CC(C)c1cnc(Cl)cc1Oc1cnc(N)nc1N [Compound C3, 5-((2-chloro-5-isopropylpyridin-4-yl)oxy)pyrimidine-2,4-diamine]
238 | 262 | COc1cc(Oc2cnc(N)nc2N)c(C2CC2)cn1 [Compound C33, 5-((5-cyclopropyl-2-methoxypyridin-4-yl)oxy) pyrimidine-2,4-diamine]
188 | 259 | CCNc1nc(N)ncc1Oc1cc(Br)ncc1C(C)C [Compound C173, 5-((2-bromo-5-isopropylpyridin-4-yl)oxy)-N^4-ethylpyrimidine-2,4-diamine]
130 | 266 | CC(C)c1cnc(C#Cc2cccc3cccnc23)cc1Oc1cnc(N)nc1N [Compound C149, 5-((5-isopropyl-2-(quinolin-8-ylethynyl)pyridin-4-yl)oxy)pyrimidine-2,4-diamine]
48 | 40 | CC(C)c1cnc(Br)cc1Oc1cnc(N)nc1NNC(=O)OC(C)(C)C [Compound C222, tert-butyl 2-(2-amino-5-((2-bromo-5-isopropylpyridin-4-yl)oxy)pyrimidin-4-yl)hydrazine-1-carboxylate]

The remaining lines, values behind:

SMILES | IC50 (human P2X3 receptor) [nM] | IC50 (human P2X2/3 receptor) [nM]
CC(C)c1cnc(Br)cc1Oc1cnc(N)nc1NCCN [Compound C199, N^4-(2-aminoethyl)-5-((2-bromo-5-isopropylpyridin-4-yl)oxy)pyrimidine-2,4-diamine] | 186 | 333
CNc1ncc(Oc2cc(Br)ncc2C(C)C)c(N)n1 [Compound C237, 5-((2-bromo-5-isopropylpyridin-4-yl)oxy)-N^2-methylpyrimidine-2,4-diamine] | 363 | 781
C=Cc1cc(Sc2cnc(N)nc2N)c(C(C)C)cn1 [Compound C95, 5-((5-isopropyl-2-vinylpyridine-4-yl)thio)pyrimidine-2,4-diamine] | 138 | 163
CC(C)c1cnc(C#CC2CC2)cc1Oc1cnc(N)nc1N [Compound C142, 5-((2-(cyclo-propylethynyl)-5-isopropylpyrdin-4-yl)oxy) pyrimidine-2,4-diamine] | 302 | 549
COc1cc(Oc2cnc(N)nc2N)c(C)cn1 [Compound C176, 5-((2-methoxy-5-methylpyridin-4-yl)oxy) pyrimidine-2,4-diamine] | 611 | 984
CC(C)c1cnc(-c2ccccc2)cc1Oc1cnc(N)nc1N [Compound C13] | 355 | 599
CSc1cc(Oc2cnc(N)nc2N)c(C(C)C)cn1 [Compound C20, 5-((5-isopropyl-2-(methylthio)pyridin-4-yl)oxy)pyrimidine-2,4-diamine] | 44.4 | 75.7
CSc1cc(Oc2cnc(N)nc2NCCN(C)C)c(C(C)C)cn1 [Compound C72, N^4-(2-(dimethylamino)ethyl)-5-((5-isopropyl-2-(methylthio)pyridin-4-yl)oxy)pyrimidine-2,4-diamine] | 127 | 89
C#Cc1cc(Oc2cnc(NC(CO)CO)nc2N)c(C(C)C)cn1 [Compound C228, 2-((4-amino-5-((2-ethynyl-5-isopropyl-pyrdin-4-yl)oxy)pyrimidin-2-yl)amino) propane-1,3-diol] | 119 | 125
CC(C)c1cnc(Br)cc1Oc1cnc(NC2CC2)nc1N [Compound C238, 5-((2-bromo-5-isopropylpyridin-4-yl)oxy)-N^2-cyclopropyl-pyrimidine-2,4-diamine] | 104 | 206
CC(C)c1cnc(Br)cc1Oc1cnc(NCCO)nc1NCCO [Compound C226, 2,2′-((5-((2-bromo-5-isopropylpyridin-4-yl)oxy)pyrimidin-2,4-diyl)bis(azanediyl))diethanol] | 115 | 155
CCNc1cc(Oc2cnc(N)nc2N)c(C(C)C)cn1 [Compound C118, 5-((2-(ethylamino)-5-isopropylpyridin-4-yl)oxy) pyrimidine-2,4-diamine] | 142 | 366
C#Cc1cc(Oc2cnc(N)nc2NCCO)c(C(C)C)cn1 [Compound C211, 2-((2-amino-5-((2-ethynyl-5-isopropylpyridin-4-yl)oxy)pyrimidin-4-yl)amino)ethanol] | 64 | 121
CC(C)c1cnc(C2CC2)cc1Oc1cnc(N)nc1N [Compound C52, 5-((2-cyclopropyl-5-isopropylpyridin-4-yl)oxy)pyrimidine-2,4-diamine] | 147 | 589
